Patent publication US9212130B2, “Heterocyclic derivative and pharmaceutical composition comprising the same” (SHIONOGI & CO., LTD., priority 2010, dated 2015)

Legend:
human P2X3 receptor = human P2X3 receptor (Homo sapiens (Human), UniProt P56373); experiment: Evaluation of human P2X3 receptor inhibitory activity (ATP-induced Fluo-3 fluorescence, FDSS 3000); assay type: cell-based; conditions: C6BU-1 cell transfected with human P2X3 receptor gene
Method in brief: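 Human P2X3 inhibition read as ATP-evoked Fluo-3 calcium fluorescence; compound preincubated, then 50 nM ATP solution (concentration as dispensed) added and fluorescence followed 3 min. Response taken as peak-to-baseline fluorescence ratio per well; IC50 derived from concentration–response.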

CYP2C9 = CYP2C9 (Homo sapiens (Human), UniProt P11712); experiment: CYP inhibition test, tolbutamide methyl-hydroxylation; assay type: in vitro ADME; conditions: pooled human hepatic microsome; 100 μmol/L tolbutamide; given as 'five kinds'
Description: (§1) Using commercially available pooled human hepatic microsome, and employing, as markers, 7-ethoxyresorufin O-deethylation (CYP1A2), tolbutamide methyl-hydroxylation (CYP2C9), mephenyloin 4′-hydroxylation (CYP2C19), dextromethorphan O-demethylation (CYP2D6), and terfenedine hydroxylation as typical substrate metabolism reactions of human main five ([…] enzyme forms (CYP1A2, 2C9, 2C19, 2D6, 3A4), an inhibitory degree of each metabolite production amount by a test compound was assessed.
(§2) The reaction conditions were as follows: substrate, 0.5 μmol/L ethoxyresorufin (CYP1A2), 100 μmol/L tolbutamide (CYP2C9), 50 μmol/L S-mephenitoin (CYP2C19), 5 μmol/L dextromethorphan (CYP2D6), 1 μmol/L terfenedine (CYP3A4); reaction time, 15 minutes; reaction temperature, 37° C.; enzyme, pooled human hepatic microsome 0.2 mg protein/mL; test drug concentration, 1.0. 5.0, 10, 20 μmol/L (four points).
(§3) Each five kinds of substrates, human hepatic microsome, or a test drug in 50 mmol/L Hepes buffer as a reaction solution was added to a 96-well plate at the composition as described above. NADPH, as a cofactor was added to initiate metabolism reactions as markers and, after the incubation at 37° C. for 15 minutes, a methanol/acetonitrile=1/1 (v/v) solution was added to stop the reaction. After the centrifugation at 3000 rpm for 15 minutes, resorufin (CYP1A2 metabolite) in the supernatant was quantified by a fluorescent multilabel counter and tributamide hydroxide (CYP2CP metabolite), mephenyloin 4′ hydroxide (CYP2C19 metabolite), […], and terfenadine alcohol (CYP3A4 metabolite) were quantified by LC/MS/MS.
(§4) Addition of only DMSO being a solvent dissolving a drug to a reaction system was adopted as a control (100%), remaining activity (%) was calculated at each concentration of a test drug added as the solution and IC50 was calculated by reverse presumption by a logistic model using a concentration and an inhibition rate.

CYP2D6 = CYP2D6 (Homo sapiens (Human), UniProt P10635); experiment: CYP inhibition test, dextromethorphan O-demethylation; assay type: in vitro ADME; conditions: pooled human hepatic microsome; 5 μmol/L dextromethorphan; given as 'five kinds'
Description: as §1, §2, §3, §4

CYP3A4 = CYP3A4 (Homo sapiens (Human), UniProt P08684); experiment: CYP inhibition test, terfenedine hydroxylation; assay type: in vitro ADME; conditions: pooled human hepatic microsome; 1 μmol/L terfenedine; given as 'five kinds'
Description: as §1, §2, §3, §4

Solubility test = assay type: physicochemical; conditions: artificial intestinal juice (phosphate buffer) with 1% DMSO, 25 °C, other biorelevant, kinetic from dmso stock, artificial intestinal juice in pH 8.8, 25 degrees Celsius for 16 hours
Description: The solubility of a compound was determined under a condition in which 1% DMSO was added. 10 mmol/L compound solution was prepared using DMSO, and then 6 μL of the compound solution was added to 594 μL of artificial intestinal juice in […] (to 250 mL of 0.2 mol/L potassium dihydrogen phosphate reagent solution was added 118 mL of 0.2 mol/L NaOH reagent solution and water to provide a final volume of 1000 mL). After standing at 25 degrees Celsius for 16 hours, the mixed solution was filtrated with suction. The filtrate was diluted twice with methanol/water (1/1) and then a concentration in the filtration was measured with HPLC or LC/MS/MS by the absolute calibration method.

[1] = Metabolism stability test (pooled human hepatic microsomes); assay type: in vitro ADME; conditions: human liver microsomes 0.5 mg protein/mL; 37° C., 30 minutes; 1 mmol/L NADPH; compound concentration 0.5 μmol/L
Description: Using commercially available pooled human hepatic microsomes, a test compound was reacted for a constant time, a remaining rate was calculated by comparing a reacted sample and an unreacted sample, thereby, a degree of metabolism in liver was assessed.
A reaction was performed (oxidative reaction) at 37° C. for 0 minute or 30 minutes in the presence of 1 mmol/L NADPH in 0.2 mL of a buffer (50 mmol/L tris-HCl pH 7.4, 150 mmol/L potassium chloride, 10 mmol/L magnesium chloride) containing 0.5 mg protein/mL of human liver microsomes. After the reaction, 50 μL of the reaction solution was added to 100 μL of a methanol/acetonitrile 1/1 (v/v), mixed and centrifuged at 3000 rpm for 15 minutes. The test compound in the supernatant was quantified by LC/MS/MS, and a remaining amount of the test compound after the reaction was calculated, letting a compound amount at 0 minute reaction time to be 100%.

[2] = Bioavailability (BA) test; assay type: in vivo; conditions: plasma; Mice or SD rats; oral 0.3 to 30 mg/kg vs intravenous 0.5 to 10 mg/kg; from AUCs
Description: Materials and Methods for Experiment of BA
• (1) Animals: Mice or SD rats were used • (2) Breeding conditions: Mice or SD rats were allowed to freely take solid food and sterilized tap water. • (3) Dose and grouping: orally or intravenously administered at a predetermined dose; grouping was as follows (Dose depends on the compound) Oral administration: 0.3 to 30 mg/kg (n=2 to 3) Intravenous administration: 0.5 to 10 mg/kg (n=2 to 3) • (4) Preparation of dosing solution: for oral administration, in a solution or a suspension state; for intravenous administration, in a solubilized state • (5) Administration method: in oral administration, forcedly administer into ventriculus with oral probe; in intravenous administration, administer from caudal vein with a needle-equipped syringe • (6) Evaluation items: blood was collected over time, and the plasma concentration of drug was measured by LC/MS/MS • (7) Statistical analysis: regarding the transition of the plasma concentration of the present compound, the area under the plasma concentration-time curve (AUC) was calculated by non-linear least squares program WinNonlin (Registered trade name), and the bioavailability (BA) was calculated from the AUCs of the oral administration group and intravenous administration group

Chain of CYP2C9 (P11712 whole entry): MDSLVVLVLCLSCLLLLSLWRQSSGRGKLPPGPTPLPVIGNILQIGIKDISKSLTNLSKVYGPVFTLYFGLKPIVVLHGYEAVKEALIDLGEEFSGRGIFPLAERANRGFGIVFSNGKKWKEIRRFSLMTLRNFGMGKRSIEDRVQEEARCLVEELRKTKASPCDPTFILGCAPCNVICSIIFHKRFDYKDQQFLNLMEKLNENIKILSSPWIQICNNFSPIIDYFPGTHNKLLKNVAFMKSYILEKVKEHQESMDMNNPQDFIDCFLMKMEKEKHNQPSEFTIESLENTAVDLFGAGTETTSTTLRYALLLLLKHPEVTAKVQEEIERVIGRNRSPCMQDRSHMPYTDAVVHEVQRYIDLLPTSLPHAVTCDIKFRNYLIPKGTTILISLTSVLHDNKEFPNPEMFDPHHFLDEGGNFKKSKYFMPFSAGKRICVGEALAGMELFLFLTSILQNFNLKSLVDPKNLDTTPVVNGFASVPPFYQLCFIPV
Chain of human P2X3 receptor (P56373 whole entry): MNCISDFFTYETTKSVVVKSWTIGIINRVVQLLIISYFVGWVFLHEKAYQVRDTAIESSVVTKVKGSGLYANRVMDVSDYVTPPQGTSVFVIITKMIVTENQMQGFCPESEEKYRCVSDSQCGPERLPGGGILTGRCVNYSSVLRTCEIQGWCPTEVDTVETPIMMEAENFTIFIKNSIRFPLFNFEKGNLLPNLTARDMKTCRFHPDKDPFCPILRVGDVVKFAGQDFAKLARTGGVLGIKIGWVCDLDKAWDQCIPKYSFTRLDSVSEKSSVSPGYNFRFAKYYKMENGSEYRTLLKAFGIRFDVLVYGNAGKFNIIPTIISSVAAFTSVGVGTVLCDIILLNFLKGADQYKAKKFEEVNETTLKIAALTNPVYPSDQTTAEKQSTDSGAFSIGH
Chain of CYP3A4 (P08684 whole entry): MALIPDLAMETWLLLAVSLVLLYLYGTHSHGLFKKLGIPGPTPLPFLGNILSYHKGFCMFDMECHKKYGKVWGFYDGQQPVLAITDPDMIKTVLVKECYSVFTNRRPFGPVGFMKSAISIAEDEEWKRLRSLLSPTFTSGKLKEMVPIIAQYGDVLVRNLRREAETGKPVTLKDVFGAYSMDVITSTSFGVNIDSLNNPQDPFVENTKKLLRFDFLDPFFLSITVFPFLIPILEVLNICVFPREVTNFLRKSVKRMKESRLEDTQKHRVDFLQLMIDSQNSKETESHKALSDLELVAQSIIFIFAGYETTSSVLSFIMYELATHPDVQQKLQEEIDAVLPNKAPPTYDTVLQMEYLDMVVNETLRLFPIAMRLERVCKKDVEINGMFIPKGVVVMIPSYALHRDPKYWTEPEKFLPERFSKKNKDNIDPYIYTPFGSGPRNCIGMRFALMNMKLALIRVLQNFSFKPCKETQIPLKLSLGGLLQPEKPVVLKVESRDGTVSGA
Chain of CYP2D6 (P10635 whole entry): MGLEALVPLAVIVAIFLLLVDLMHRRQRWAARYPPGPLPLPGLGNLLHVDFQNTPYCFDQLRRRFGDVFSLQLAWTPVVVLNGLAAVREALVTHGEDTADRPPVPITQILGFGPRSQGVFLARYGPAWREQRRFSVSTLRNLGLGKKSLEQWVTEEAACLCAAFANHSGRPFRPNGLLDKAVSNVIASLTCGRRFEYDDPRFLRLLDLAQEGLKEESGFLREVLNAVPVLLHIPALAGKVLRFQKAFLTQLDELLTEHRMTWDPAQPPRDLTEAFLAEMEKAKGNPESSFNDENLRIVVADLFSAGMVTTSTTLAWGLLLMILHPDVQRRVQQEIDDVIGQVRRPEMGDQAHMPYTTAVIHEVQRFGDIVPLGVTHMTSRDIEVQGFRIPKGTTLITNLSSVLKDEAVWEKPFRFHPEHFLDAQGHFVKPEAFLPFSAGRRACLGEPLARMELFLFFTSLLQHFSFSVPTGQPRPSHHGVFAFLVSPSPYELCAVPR

## CC(C)Oc1ccc(Nc2cc(=O)n(C[C@H](C)C(=O)O)c(=O)n2Cc2ccc(Cl)cc2)cc1Cl [I-100]
Human P2X3 receptor
  IC50: 0.009 µM
CYP2C9
  IC50: > 20 µM
CYP2D6
  IC50: > 20 µM
CYP3A4
  IC50: > 20 µM
Solubility test
  solubility at 16 h: > 50 µM
[1]
  remaining rate: 101%
[2]
  bioavailability: 29.2%
